One compound from patent US9844533B2, “Antioxidant-containing food composition for use in inhibiting histamine pathways in companion animals” (Hill's Pet Nutrition, Inc., priority 2008, dated 2017) can be followed below.

What all share (type): cell-based
Experiment [1] has as its system GAB2 (GRB2-associated-binding protein 2). The experiment is described as follows: Gene expression in four cat cell lines treated with or without lipoic acid (paired t test, GeneGo enrichment). The conditions noted are these: Table 4; four cat cell lines with vs without lipoic acid; p<0.05. The method, then: (§1) The gene expression data from four cat cell lines treated with lipoic acid was analyzed.

The subject of experiment [2] is ADCY2 (Adenylate cyclase type 2). The experiment is described as follows: Gene expression in four cat cell lines treated with or without lipoic acid. The conditions noted are these: Table 5; four cat cell lines with vs without lipoic acid; p<0.05. The procedure: as §1
The test system of experiment [3] is ADCY7 (Adenylate cyclase type 7). The experiment is described as above. The conditions noted are these: Table 5; four cat cell lines with vs without lipoic acid; p<0.05. The procedure: as §1
In experiment [4] the test system is LTC4S (Leukotriene C4 synthase). Described as above. The conditions noted are these: Table 4; four cat cell lines with vs without lipoic acid; p<0.05. The procedure: as §1
Experiment [5] deals with MAP2K1 (Dual specificity mitogen-activated protein kinase 1). The description is as above. The note with it: Table 4; four cat cell lines with vs without lipoic acid; p<0.05. The method, then:
as §1

Experiment [6] deals with MAPK1 (Mitogen-activated protein kinase 1). The experiment is described as above. The conditions noted are these: four cat cell lines with vs without lipoic acid, p<0.05. The procedure:
as §1

Experiment [7] relates to NOS3 (Nitric oxide synthase, endothelial). The description is as above. The note with it: Table 5; four cat cell lines with vs without lipoic acid; p<0.05. The method, then: as §1
Experiment [8] has as its system PLA2G2F (Group IIFA2 secretory phospholipase precursor). The experiment is described as above. The note with it: Table 5; four cat cell lines with vs without lipoic acid; p<0.05. The procedure:
as §1

The subject of experiment [9] is PNPLA8 (Calcium-independent phospholipase A2-gamma). Described as above. The conditions noted are these: Table 5; four cat cell lines with vs without lipoic acid; p<0.05. The method, then: as §1
The subject of experiment [10] is PRKAR1A (cAMP-dependent protein kinase type I-alpha regulatory subunit). The description is as above. The conditions noted are these: Table 5; four cat cell lines with vs without lipoic acid; p<0.05. The procedure: as §1
For experiment [11], the system named is REL (C-Rel proto-oncogene protein). The description is as above. The conditions noted are these: Table 5; four cat cell lines with vs without lipoic acid; p<0.05. The procedure:
as §1

Experiment [12] relates to RELA (Transcription factor p65). The experiment is described as above. The note with it: Table 5; four cat cell lines with vs without lipoic acid; p<0.05. The procedure: as §1
The test system of experiment [13] is TNF (Tumor necrosis factor precursor). Described as above. The note with it: Table 5; four cat cell lines with vs without lipoic acid; p<0.05. The method, then: as §1
Experiment [14] has as its system VCAM1 (Vascular cell adhesion protein 1 precursor). The experiment is described as above. The conditions noted are these: Table 5; four cat cell lines with vs without lipoic acid; p<0.05. The method, then: as §1
Experiment [15] relates to histamine release and signaling pathways (gene networks). In words: Gene network enrichment analysis of cat cell lines treated with lipoic acid. The note with it: four cat cell lines treated with lipoic acid. The procedure: as §1

As to `O=C(O)CCCCC1CCSS1` (stereo not drawn) [lipoic acid, alpha-lipoic acid], in experiment [1], the “Signal (GAB2 gene expression change)” value is reported as −0.8668. Further, the “Signal (ADCY2 gene expression change)” value in experiment [2] worked out at 0.3925. For the same compound, the “Signal (ADCY7 gene expression change)” value in experiment [3] was 0.3988. In addition, in experiment [4], the “Signal (LTC4S gene expression change)” value is on record as −0.4586. In addition, the “Signal (MAP2K1 gene expression change)” value in experiment [5] was −0.1574. Also, the “Signal (MAPK1 gene expression change)” value in experiment [6] (Table 4) and in [6] (Table 5) was −0.3117 throughout. Also, the “Signal (NOS3 gene expression change)” value in [7] was −0.5503. Besides, the “Signal (PLA2G2F gene expression change)” value in experiment [8] was determined as 1.061. The “Signal (PNPLA8 gene expression change)” value in experiment [9] is on record as −0.2652. For the same compound, the “Signal (PRKAR1A gene expression change)” value in [10] is listed as −0.184. Besides, the “Signal (REL gene expression change)” value in [11] is on record as −0.4264. Moreover, in experiment [12], the “Signal (RELA gene expression change)” value is reported as −0.429. Further, the “Signal (TNF gene expression change)” value in [13] came out at 0.1797. Further, in experiment [14], the “Signal (VCAM1 gene expression change)” value is on record as −0.7819|. In experiment [15], the “Regulation of key genes in histamine and IgE signaling networks” value was “down regulated”.
